Results from patent publication US20150297738A1, “CONJUGATES COMPRISING HYDROXYALKYL STARCH AND A CYTOTOXIC AGENT AND PROCESS FOR THEIR PREPARATION” (Fresenius Kabi Deutschland GmbH, priority 2010, published 2015).
Marks after values point to notes of the source that are not given here.

Experiments:
Format in all cases: in vivo, NMRI:nu/nu mice
[1] = Body weight change as sign of toxicity in tumor-bearing mice (docetaxel/paclitaxel studies; MT-3, PC3, A549 models)
Description: (§1) Tumor growth inhibition was used as therapeutic parameter. Additionally, body weight change was determined as signs for toxicity (particularly, potential hematological or gastrointestinal side effects).
Individual body weights of mice were determined twice weekly and mean body weight per group was related to the initial value in percent (body weight change, BWC), see tables in appendix.
Descriptive statistics was performed on the data of body weight and tumor volume. […] Statistical evaluation was performed with the U-test of Mann and Whitney with a significance level of p≦0.05, using the Windows program […] 6.
Tables 18 to 24 summarize the results for the tested Docetaxel conjugates and the reference compound Taxotere®. […] The loss of body weight is known to be an indicator of gastro-intestinal and hepatotoxicity of the tested compound.
The tables show, inter alia, i) the tested compounds, ii) the tumor volume in mice at the day the control group was sacrificed (in cm^3), iii) the lowest value of the relative tumor volume vs. the relative tumor volume of the control group (RTV T/C) together with the day, when this optimum was reached, iv) the maximum body weight loss in mice together with the day, when this minimum was reached. The loss of body weight is known to be an indicator of gastro-intestinal and hepatotoxicity of the tested compound.

[2] = system: human breast carcinoma MT-3; experiment: Tumor growth inhibition (RTV, T/C) in the MT-3 xenograft mouse tumor model; settings: for Tumor volume cm^3/d31: day 31; for Tumor volume cm^3/d27: day 27
[3] = system: human pancreas carcinoma ASPC-1; experiment: Tumor growth inhibition (RTV, T/C) in the ASPC-1 s.c. xenotransplantation model; settings: Table 27, ASPC-1; day 27; 60 mg/kg/inj., treatment d 7, 15, 21
Source text: At treatment initiation the ears of the animals were marked and each cage was labeled with the cage number, study number and animal number per cage.
The human pancreas carcinoma ASPC-1 was used as s.c. xenotransplantation model in immunodeficient female NMRI:nu/nu mice.
They were thawed, expanded in vitro and transplanted as cell suspension subcutaneously (s.c.) in female NMRI:nu/nu mice. The tumor line ASPC-1 is used for testing new anticancer drugs or novel therapeutic strategies. It was therefore selected for this study.
For experimental use 10^7 tumor cells/mouse from the in vitro passage were transplanted s.c. into the flank of each of 10 mice/group at day 0.
At palpable tumor size (30-100 mm^3) treatment started. The application volume was 0.2 ml/20 g mouse body weight. The test compounds, the vehicle controls and the reference compounds were all given intravenously (i.v.).
as §1
Tumor diameters were measured twice weekly with a caliper. Tumor volumes were calculated according to V=(length×(width)^2)/2. For calculation of the relative tumor volume (RTV) the tumor volumes at each measurement day were related to the day of first treatment. […]

[4] = Body weight change as sign of toxicity in mice bearing ASPC-1 xenografts (gemcitabine study); settings: Table 27, ASPC-1; 60 mg/kg/inj., treatment d 7, 15, 21; day in parentheses
Description: as §1
Individual body weights of mice were determined twice weekly and mean body weight per group was related to the initial value in percent (body weight change, BWC).
Descriptive statistics were performed on the data of body weight and tumor volume. […] Statistical evaluation was performed with the U-test of Mann and Whitney with a significance level of p≦0.05, using the Windows program […] 6.

[5] = system: human lung carcinoma A549; experiment: Tumor growth inhibition (RTV, T/C) in the A549 xenograft mouse tumor model; settings: Table 21, conjugates 1 × 75 mg/kg d8, Docetaxel 5 mg/kg d8-12, i.v.
Description: Each measurement was carried out with a group of 8 mice. The conjugates CDc1, CDc4 and CDc5 were administered once at a dosage of 75 mg/kg body weight on day 8. Taxotere® was administered 5 times at a dosage of 5 mg/kg body weight at days 8 to 12. Median values are given.
(§2) Adult male and female immunodeficient mice NMRI:nu/nu mice (TACONIC Europe, Lille Skensved, Denmark) were used throughout the study.
(§3) The animals were randomly assigned to various experimental groups with 6 to 8 mice each. At treatment initiation the ears of the animals were marked and each cage was labeled with the cage number, study number and animal number per cage.
(§4) The tumor lines A549, PC-3 and MT3 are lines which are commonly used for testing new anticancer drugs or novel therapeutic therapies. A549, PC-3 and MT3 xenografts are growing relatively fast and uniform.
(§5) Tumor cells were thawed and grown under in vitro conditions. […]
as §1
(§6) Tumor diameters were measured twice weekly with a caliper. Tumor volumes were calculated according to V=(length×(width)^2)/2. […] At each measurement day the median and mean tumor volumes per group and also the treated to control (T/C) values in percent were calculated. […]

[6] = system: human prostate carcinoma PC3; experiment: Tumor growth inhibition (RTV, T/C) in the PC3 xenograft mouse tumor model; settings: Table 20; conjugates 1 × 75 mg/kg d6, Docetaxel 5 mg/kg d6-10; i.v.
Description: Each measurement was carried out with a group of 8 mice. The conjugates CDc1, CDc4 and CDc5 were administered once at a dosage of 75 mg/kg body weight on day 6. Taxotere® was administered 5 times at a dosage of 5 mg/kg body weight at days 6 to 10. Median values are given.
as §2, §3, §4, §5, §1, §6

[7] = Table 25, MT-3, 12.5 mg/kg/inj. d 7-9, 10 mg/kg/inj. d 10-11
[8] = Table 23, conjugates 1 × 75 mg/kg d7, Docetaxel 5 mg/kg d7-11, i.v.

CC(=O)O[C@H]1C(=O)[C@@]2(C)[C@H]([C@H](OC(=O)c3ccccc3)[C@]3(O)C[C@H](OC(=O)[C@H](O)[C@@H](NC(=O)c4ccccc4)c4ccccc4)C(C)=C1C3(C)C)[C@]1(OC(C)=O)CO[C@@H]1C[C@@H]2O [Paclitaxel, paclitaxel]
BWC [%] (at day) ([1]; Table 25, MT-3 model, 12.5 mg/kg/inj. d 7-9, 10 mg/kg/inj. d 10-11): −15%
Toxic deaths (at day) ([1]; Table 25, MT-3 model, 12.5 mg/kg/inj. d 7-9, 10 mg/kg/inj. d 10-11, number of mice): 1
BWC [%] (at day) ([1]; Table 26, MT-3 model, 10 mg/kg/inj., treatment d 10-14): −18%
Toxic deaths (at day) ([1]; Table 26, MT-3 model, 10 mg/kg/inj., treatment d 10-14, number of mice): 0
RTV T/C (%) Optimum (at day) [2, 7]: 21.5%
Tumor volume cm^3/d31 [2, 7]: 0.41 +/− 0.21* cm^3
Tumor volume cm^3/d31 ([2]; Table 26, MT-3, 10 mg/kg/inj., treatment d 10-14): 0.673 +/− 0.226* cm^3

Nc1ccn([C@@H]2O[C@H](CO)[C@@H](O)C2(F)F)c(=O)n1 [Gemcitabine, gemcitabine]
d27 [head truncated; T/C in percent] [3]: 53.3%
[%] (at day) [head truncated; BWC] [4]: −2.4 (9) %

CC(=O)O[C@@]12CO[C@@H]1C[C@H](O)[C@@]1(C)C(=O)[C@H](O)C3=C(C)[C@@H](OC(=O)[C@H](O)[C@@H](NC(=O)OC(C)(C)C)c4ccccc4)C[C@@](O)([C@@H](OC(=O)c4ccccc4)[C@H]21)C3(C)C [Docetaxel, docetaxel]
RTV T/C (%) Optimum (at day) [5]: 32.3%
Tumor volume cm^3/d42 ([5]; day 42): 0.334 +/− 0.207* cm^3
Toxic deaths (at day) ([1]; Table 18, MT-3 model, conjugates 1 × 100 mg/kg d7, Docetaxel 10 mg/kg d7, 9, 11, i.v., 8 mice per group): 4
Toxic death (at day) ([1]; Table 23, MT-3 model, conjugates 1 × 75 mg/kg d7, Docetaxel 5 mg/kg d7-11, i.v.): 0
BWC [%] (at day) ([1]; mouse, in vivo, 5 mg/kg): −11%
RTV T/C (%) Optimum (at day) [6]: 2.6%
Tumor volume cm^3/d31 ([2]; Table 18, conjugates 1 × 100 mg/kg d7, Docetaxel 10 mg/kg d7, 9, 11, i.v.): 0.18 +/− 0.10 cm^3
RTV T/C (%) Optimum (at day) ([2]; Table 18, lowest RTV vs control, conjugates 1 × 100 mg/kg d7, Docetaxel 10 mg/kg d7, 9, 11, i.v.): 10.7%
RTV T/C (%) Optimum (at day) ([2]; Table 19, conjugates 1 × 75 mg/kg d11, Docetaxel 5 mg/kg d11-15, i.v.): 54.0%
Tumor volume cm^3/d26 ([2]; Table 19, day 26, conjugates 1 × 75 mg/kg d11, Docetaxel 5 mg/kg d11-15, i.v.): 0.815 +/− 0.383* cm^3
RTV T/C (%) Optimum (at day) ([2]; Table 22, conjugates 1 × 75 mg/kg d11, Docetaxel 5 mg/kg d11-15, i.v.): 31.8%
Tumor volume cm3/d25 ([2]; Table 22, day 25, conjugates 1 × 75 mg/kg d11, Docetaxel 5 mg/kg d11-15, i.v.): 0.517 +/− 0.202* cm3
RTV T/C (%) Optimum (at day) [2, 8]: 43.0%
Tumor volume cm^3/d27 [2, 8]: 0.873 +/− 0.390* cm^3
RTV T/C (%) Optimum (at day) ([2]; Table 24, MT-3, 5 mg/kg/inj., treatment d 8-12, day of optimum in parentheses below): 23.1%
Tumor volume cm^3/d27 ([2]; Table 24, MT-3, 5 mg/kg/inj., treatment d 8-12): 0.542 +/− 0.353* cm^3
